Residue numbers refer to the chain shown, from its start. Non-standard residues stand in square brackets, D forms with d. No end group written: not given here. pY = N[C@@H](Cc1ccc(OP(=O)(O)O)cc1)C(=O)O; FAM = 5,6-carboxyfluorescein
How the values were obtained:
[1] = molecular target: T1, Rtt103p CID (Saccharomyces cerevisiae, UniProt Q05543); experiment: Equilibrium binding by fluorescence anisotropy (FA), wild-type Rtt103p CID; parameters: species or system yeast
T1 construct: Rtt103p CID (3‐131–6xHIS) was expressed and purified as previously described; 6xHis (C); made in house; host or cells: E. coli BL21-Codon Plus (DE3)-RIPL
T1 sequence (Q05543 3-131): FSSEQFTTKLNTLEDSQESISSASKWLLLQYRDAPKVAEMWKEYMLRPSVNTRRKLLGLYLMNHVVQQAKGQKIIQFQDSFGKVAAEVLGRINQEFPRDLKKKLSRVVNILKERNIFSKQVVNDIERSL

[2] = molecular target: T2, Rtt103p CID Q19A (Saccharomyces cerevisiae, UniProt Q05543, Q19A); experiment: Equilibrium binding by fluorescence anisotropy (FA), Rtt103p CID Q19A mutant; parameters: species or system yeast; conditions: Rtt103p CID Q19A mutant titrated into 10 nM FAM‐labelled CTD peptide, 10°C, pH 6.8, ± standard deviation of the fit
T2 construct: Rtt103p CID (3‐131–6xHIS) was expressed and purified as previously described; 6xHis (C); made in house; host or cells: E. coli BL21-Codon Plus (DE3)-RIPL
T2 sequence (Q05543 3-131 Q19A): T1 sequence (Q05543 3-131) with Q17A
Method: The equilibrium binding of Rtt103p CID constructs to differently phosphorylated CTD was analysed by fluorescence anisotropy. The CTD peptides were N‐terminally labelled with the 5,6‐carboxyfluorescein (FAM). The measurements were conducted on a FluoroLog‐3 spectrofluorometer (Horiba Jobin‐Yvon Edison, NJ). The instrument was equipped with a thermostatted cell holder with a Neslab RTE7 water bath (Thermo Scientific). Samples were excited with vertically polarized light at 467 nm, and both vertical and horizontal emissions were recorded at 516 nm. All measurements were conducted at 10°C in 35 mM KH2PO4, 100 mM KCl (pH 6.8). Each data point is an average of three measurements. The experimental binding isotherms were analysed by DynaFit using 1:1 model with non‐specific binding 39.

| Compound | binding with Rtt103p (in words) ([1]; fluorescence anisotropy, 10 nM FAM‐labelled CTD peptide, 10°C, pH 6.8) | Kd [1] | Kd [2] |
| --- | --- | --- | --- |
| PS pYSPTSPS YSPTSPS: FAM‐labelled CTD peptide with the pTyr1 mark in the central heptad ({FAM}-PS[pY]SPTSPSYSPTSPS) | completely abolished the binding |  |  |
| C[C@@H](O)[C@H](NC(=O)[C@@H]1CCCN1C(=O)[C@H](CO)NC(=O)[C@H](Cc1ccc(O)cc1)NC(=O)[C@H](CO)NC(=O)[C@@H]1CCCN1C(=O)[C@H](CO)NC(=O)[C@@H](NC(=O)[C@@H]1CCCN1C(=O)[C@H](COP(=O)(O)O)NC(=O)[C@H](Cc1ccc(O)cc1)NC(=O)[C@H](CO)NC(=O)[C@@H]1CCCN1C(=O)c1ccc2c(c1)C(=O)OC21c2ccc(O)cc2Oc2cc(O)ccc21)[C@@H](C)O)C(=O)N[C@@H](CO)C(=O)N1CCC[C@H]1C(=O)N[C@@H](CO)C(=O)O [pSer2‐CTD] |  | 6 ± 0.2 µM |  |
| C[C@@H](O)[C@H](NC(=O)[C@@H]1CCCN1C(=O)[C@H](CO)NC(=O)[C@H](Cc1ccc(O)cc1)NC(=O)[C@H](CO)NC(=O)[C@@H]1CCCN1C(=O)[C@H](CO)NC(=O)[C@@H](NC(=O)[C@@H]1CCCN1C(=O)[C@H](CO)NC(=O)[C@H](Cc1ccc(O)cc1)NC(=O)[C@H](CO)NC(=O)[C@@H]1CCCN1C(=O)c1ccc2c(c1)C(=O)OC21c2ccc(O)cc2Oc2cc(O)ccc21)[C@@H](C)OP(=O)(O)O)C(=O)N[C@@H](CO)C(=O)N1CCC[C@H]1C(=O)N[C@@H](CO)C(=O)O [pThr4‐CTD] |  | 15 ± 1 µM | 48 ± 5 µM |
| C[C@@H](OP(=O)(O)O)[C@H](NC(=O)[C@@H]1CCCN1C(=O)[C@H](CO)NC(=O)[C@H](Cc1ccc(O)cc1)NC(=O)[C@H](CO)NC(=O)[C@@H]1CCCN1C(=O)[C@H](CO)NC(=O)[C@@H](NC(=O)[C@@H]1CCCN1C(=O)[C@H](CO)NC(=O)[C@H](Cc1ccc(O)cc1)NC(=O)[C@H](CO)NC(=O)[C@@H]1CCCN1C(=O)c1ccc2c(c1)C(=O)OC21c2ccc(O)cc2Oc2cc(O)ccc21)[C@@H](C)OP(=O)(O)O)C(=O)N[C@@H](CO)C(=O)N1CCC[C@H]1C(=O)N[C@@H](CO)C(=O)O [Doubly phosphorylated pThr4‐CTD] |  | 6 ± 0.2 µM |  |
| C[C@@H](O)[C@H](NC(=O)[C@@H]1CCCN1C(=O)[C@H](CO)NC(=O)[C@H](Cc1ccc(O)cc1)NC(=O)[C@H](CO)NC(=O)[C@@H]1CCCN1C(=O)[C@H](CO)NC(=O)[C@@H](NC(=O)[C@@H]1CCCN1C(=O)[C@H](COP(=O)(O)O)NC(=O)[C@H](Cc1ccc(O)cc1)NC(=O)[C@H](CO)NC(=O)[C@@H]1CCCN1C(=O)c1ccc2c(c1)C(=O)OC21c2ccc(O)cc2Oc2cc(O)ccc21)[C@@H](C)OP(=O)(O)O)C(=O)N[C@@H](CO)C(=O)N1CCC[C@H]1C(=O)N[C@@H](CO)C(=O)O [PS YpSPpTSPS YSPTSPS] |  | 43 ± 2 µM |  |

— PMC5452035, “Structural insight into recognition of phosphorylated threonine‐4 of RNA polymerase II C‐terminal domain by Rtt103p” (EMBO Reports, 2017)
